Data published in patent US12441733B2, “Substituted 2,4-dioxotetrahydropyrimidines as intermediates in the synthesis of bruton's tyrosine kinase inhibitors” (Novartis AG, priority 2018, dated 2025).

The compounds below were run on TMD8 cells (assay: Resazurin cell viability (proliferation) assay in TMD8 DLBCL cells). Conditions: Homo sapiens, TMD8 cells (BTK dependent), 72 h, 50% growth inhibition vs vehicle, read-out: TMD8 Prol GI50.
Type: cell-based
Method in brief: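 TMD8 cells were seeded at 1×10^4 per well and treated 3 h later with compound, in an 8-point 1:4 dilution series starting at 1 μM, or DMSO, for 72 h at 37° C. Resazurin was added at 13 μg/ml final for the last 2 h, and fluorescence was read at ex 530/em 600 nm. GI50 versus vehicle was derived by curve fitting from triplicates.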
Work on `CCOc1ccc(C(=O)N2CCC3(CCN(Cc4ccc(-c5cc6c(-c7cc(F)cc(NC(=O)c8ccc(C(C)(C)O)cc8F)c7C)ncnc6[nH]5)cc4)CC3)CC2)cc1N1CCC(=O)NC1=O` [Compound 4, N-(3-(6-(4-((9-(3-(2,4-Dioxotetrahydropyrimidin-1(2H)-yl)-4-ethoxybenzoyl)-3,9-diazaspiro[5.5]undecan-3-yl)methyl)phenyl)-7H-pyrrolo[2,3-d]pyrimidin-4-yl)-5-fluoro-2-methylphenyl)-2-fluoro-4-(2-hydroxypropan-2-yl)benzamide] yielded a GI50 of 1.84 nM. For `Cc1ccc(C(=O)N2CCC3(CCN(CCc4ccc(-c5cc6c(-c7cc(F)cc(NC(=O)c8ccc(C(C)(C)O)cc8F)c7C)ncnc6[nH]5)cc4)CC3)CC2)cc1N1CCC(=O)NC1=O` [Compound 5, N-(3-(6-(4-(2-(9-(3-(2,4-Dioxotetrahydropyrimidin-1(2H)-yl)-4-methylbenzoyl)-3,9-diazaspiro[5.5]undecan-3-yl)ethyl)phenyl)-7H-pyrrolo[2,3-d]pyrimidin-4-yl)-5-fluoro-2-methylphenyl)-2-fluoro-4-(2-hydroxypropan-2-yl)benzamide], the GI50 was 0.47 nM. Compound `Cc1c(NC(=O)c2ccc(C(C)(C)O)cc2F)cc(F)cc1-c1ncnc2[nH]c(-c3ccc(COC4CCN(CCC5CCN(C(=O)c6ccc(F)c(N7CCC(=O)NC7=O)c6)CC5)CC4)cc3)cc12` [Compound 6, N-(3-(6-(4-(((1-(2(1-(3-(2,4-dioxotetrahydropyrimidin-1(2H)-yl)-4-fluorobenzoyl)piperidin-4-yl)ethyl)piperidin-4-yl)oxyl)methyl)phenyl)-7H-pyrrolo[2,3-d]pyrimidin-4-yl)-5-fluoro-2-methylphenyl)-2-fluoro-4-(2-hydroxypropan-2-yl)benzamide] has a GI50 of 0.53 nM. For `COc1ccc(C(=O)N2CCC(OC3CCN(Cc4ccc(-c5cc6c(-c7cc(F)cc(NC(=O)c8ccc(C(C)(C)O)cc8F)c7C)ncnc6[nH]5)cc4)CC3)CC2)cc1N1CCC(=O)NC1=O` [Compound 8, N-(3-(6-(4-((4-((1-(3-(2,4-dioxotetrahydropyrimidin-1(2H)-yl)-4-methoxybenzoyl)piperidin-4-yl)oxyl)piperidin-1-yl)methyl)phenyl)-7H-pyrrolo[2,3-d]pyrimidin-4-yl)-5-fluoro-2-methylphenyl)-2-fluoro-4-(2-hydroxypropan-2-yl)benzamide], the GI50 was 0.39 nM. Compound `COc1ccc(C(=O)N2CCC3(CCN(Cc4ccc(-c5cc6c(-c7cc(F)cc(NC(=O)c8ccc(C(C)(C)O)cc8F)c7C)ncnc6[nH]5)cc4)CC3)CC2)cc1N1CCC(=O)NC1=O` [Compound 9, N-(3-(6-(4-((9-(3-(2,4-Dioxotetrahydropyrimidin-1(2H)-yl)-4-methoxybenzoyl)-3,9-diazaspiro[5.5]undecan-3-yl)methyl)phenyl)-7H-pyrrolo[2.3-d]pyrimidin-4-yl)-5-fluoro-2-methylphenyl)-2-fluoro-4-(2-hydroxypropan-2-yl)benzamide] has a GI50 of 0.52 nM. For `Cc1c(NC(=O)c2ccc(C(C)(C)O)cc2F)cc(F)cc1-c1ncnc2[nH]c(-c3ccc(CCN4CCC5(CC4)CCN(C(=O)c4cccc(N6CCC(=O)NC6=O)c4)CC5)cc3)cc12` [Compound 12, N-(3-(6-(4-(2-(9-(3-(2,4-Dioxotetrahydropyrimidin-1(2H)-yl)benzoyl)-3,9-diazaspiro[5,5]undecan-3-yl)ethyl)phenyl)-7H-pyrrolo[2,3-d]pyrimidin-4-yl)-5-fluoro-2-methylphenyl)-2-fluoro-4-(2-hydroxypropan-2-yl)benzamide], the GI50 was 0.93 nM. In the case of `Cc1c(NC(=O)c2ccc(C(C)(C)O)cc2F)cc(F)cc1-c1ncnc2[nH]c(-c3ccc(CN4CCC5(CC4)CCN(C(=O)c4ccc(F)c(N6CCC(=O)NC6=O)c4)CC5)cc3)cc12` [Compound 14, N-(3-(6-(4-((9-(3-(2,4-Dioxotetrahydropyrimidin-1(2H)-yl)-4-fluorobenzoyl)-3,9-diazaspiro[5.5]undecan-3-yl)methyl)phenyl)-7H-pyrrolo[2.3-d]pyrimidin-4-yl)-5-fluoro-2-methylphenyl)-2-fluoro-4-(2-hydroxypropan-2-yl)benzamide], the GI50 was 1.02 nM. `COc1ccc(C(=O)N2CCC(CN3CCC(Oc4ccc(-c5cc6c(-c7cc(F)cc(NC(=O)c8ccc(C(C)(C)O)cc8F)c7C)ncnc6[nH]5)cc4)CC3)CC2)cc1N1CCC(=O)NC1=O` [Compound 19, N-(3-(6-(4-((1-((1-(3-(2,4-Dioxotetrahydropyrimidin-1(2H)-yl)-4-methoxybenzoyl)piperidin-4-yl)methyl)piperidin-4-yl)oxyl)phenyl)-7H-pyrrolo[2,3-d]pyrimidin-4-yl)-5-fluoro-2-methylphenyl)-2-fluoro-4-(2-hydroxypropan-2-yl)benzamide] was tested, and the GI50 was 0.45 nM. With `COc1ccc(C(=O)N2CCC3(CC2)CCN(C(C)(C)Cc2ccc(-c4cc5c(-c6cc(F)cc(NC(=O)c7ccc(C(C)(C)O)cc7F)c6C)ncnc5[nH]4)cc2)CC3)cc1N1CCC(=O)NC1=O` [Compound 20, N-(3-(6-(4-(2-(9-(3-(2,4-Dioxotetrahydropyrimidin-1(2H)-yl)-4-methoxybenzoyl)-3,9-diazaspiro[5.5]undecan-3-yl)-2-methylpropyl)phenyl)-7H-pyrrolo[2,3-d]pyrimidin-4-yl)-5-fluoro-2-methylphenyl)-2-fluoro-4-(2-hydroxypropan-2-yl)benzamide] the GI50 was 0.53 nM. Compound `COc1ccc(C(=O)N2CCN(C(=O)N3CCN(Cc4ccc(-c5cc6c(-c7cc(F)cc(NC(=O)c8ccc(C(C)(C)O)cc8F)c7C)ncnc6[nH]5)cc4)CC3)CC2)cc1N1CCC(=O)NC1=O` [Compound 22, N-(3-(6-(4-((4-(4-(3-(2,4-Dioxotetrahydropyrimidin-1(2H)-yl)-4-methoxybenzoyl)piperazine-1-carbonyl)piperazin-1-yl)methyl)phenyl)-7H-pyrrolo[2,3-d]pyrimidin-4-yl)-5-fluoro-2-methylphenyl)-2-fluoro-4-(2-hydroxypropan-2-yl)benzamide] has a GI50 of 4.82 nM. `Cc1ccc(C(=O)N2CCC3(CCN(Cc4ccc(-c5cc6c(-c7cc(F)cc(NC(=O)c8ccc(C(C)(C)O)cc8F)c7C)ncnc6[nH]5)cc4)CC3)CC2)cc1N1CCC(=O)NC1=O` [Compound 27, N-(3-(6-(4-((9-(3-(2,4-Dioxotetrahydropyrimidin-1(2H)-yl)-4-methylbenzoyl)-3,9-diazaspiro[5.5]undecan-3-yl)methyl)phenyl)-7H-pyrrolo[2,3-d]pyrimidin-4-yl)-5-fluoro-2-methylphenyl)-2-fluoro-4-(2-hydroxypropan-2-yl)benzamide] was tested, and the GI50 was 0.4 nM. Work on `Cc1cc(F)c(C(=O)NCCCCCNCc2ccc(-c3cc4c(-c5cc(F)cc(NC(=O)c6ccc(C(C)(C)O)cc6F)c5C)ncnc4[nH]3)cc2)cc1N1CCC(=O)NC1=O` [Compound 29, 5-(2,4-Dioxotetrahydropyrimidin-1(2H)-yl)-2-fluoro-N—(S-((4-(4-(5-fluoro-3-(2-fluoro-4-(2-hydroxypropan-2-yl)benzamido)-2-methylphenyl)-7H-pyrrolo[2,3-d]pyrimidin-6-yl)benzyl)amino)pentyl)-4-methylbenzamide] yielded a GI50 of 2.25 nM. Compound `Cc1ccc(C(=O)N(C)CCCCCNCc2ccc(-c3cc4c(-c5cc(F)cc(NC(=O)c6ccc(C(C)(C)O)cc6F)c5C)ncnc4[nH]3)cc2)cc1N1CCC(=O)NC1=O` [Compound 30, 3-(2,4-Dioxotetrahydropyrimidin-1(2H)-yl)-N-(5-((4-(4-(5-fluoro-3-(2-fluoro-4-(2-hydroxypropan-2-yl)benzamido)-2-methylphenyl)-7H-pyrrolo[2,3-d]pyrimidin-6-yl)benzyl)amino)pentyl)-N,4-dimethylbenzamide] has a GI50 of 5.2 nM.
